# Patent publication US11241398B2, “Affinity medicant conjugate” (Califia Pharma Inc., priority 2014, dated 2022)
# Residues, ends and D or L forms follow the SMILES beside them. *: point of attachment. X3 = CC1=C(C*)C2=C(C)C3(CC3)C(C)(O)C(=O)C2=C1
# Tests used:
# 8392B cell line [1] = test: 48 hour exposure, growth or viability by Trypan Blue Exclusion assay, nontarget cell line; type: cell-based; conditions: for IC50: read-out: Mean IC50 value, 8392B Nontarget Cell Line, 48 hr exposure, 8392B nontarget cell line, 48 hr exposure, mean ± SD, N = 3 unless otherwise indicated
# Method: (§1) The MV522 cell line is a lung-derived adenocarcinoma cell line. In various embodiments of the invention, the MV522 cell line represents a “target” cell line. […] The two hour toxicity data represents the concentration of a given analog for which a two hour exposure will inhibit 50% of the DNA synthesis activity in a given cell line. The 48 hour exposure data represents the concentration at which a given analog with a 48 hour exposure will inhibit the growth or viability in a given cell line as defined by the standard Trypan Blue Exclusion assay.
# MV522 cell line [2] = test: 48 hour exposure, growth or viability by Trypan Blue Exclusion assay, target cell line; type: cell-based; conditions: read-out: Mean IC50 value, MV522 Target Cell Line, 48 hr exposure, mean ± SD, N = 3 unless otherwise indicated
# Method: as §1
# 8392B cell line [3] = test: two hour toxicity: inhibition of 50% of DNA synthesis activity, nontarget cell line; type: cell-based; conditions: read-out: Mean IC50 value, 8392B Nontarget Cell Line, 2 hr exposure, mean ± SD, N = 3 unless otherwise indicated
# Method: as §1
# MV522 cell line [4] = test: two hour toxicity: inhibition of 50% of DNA synthesis activity, target cell line; conditions: for IC50: read-out: Mean IC50 value, MV522 Target Cell Line, 2 hr exposure, MV522 target cell line, 2 hr exposure, mean ± SD, N = 3 unless otherwise indicated
# Method: as §1
# [5] = tested on: NCI-DTP 60 cell line panel; conditions: cited from earlier work
# [6] = tested on: hormone-refractory prostate cancer; conditions: cited from earlier work
# MDR phenotypes = test: multidrug resistance studies (mechanisms of drug resistance); type: cell-based; conditions: multi-medicant resistance phenotype, Bcl-2 over expression, p53 and p21/WAF1 mutations
SMILES,IC50 (8392B cell line [3]) [µM],IC50 (MV522 cell line [4]) [µM],also measured
CC(=O)ON(C(C)=O)c1ccc(C(=O)OCC2(C)C=C3C(=O)C(C)(O)C4(CC4)C(C)=C3C2OC(=O)c2ccc(N(OC(C)=O)C(C)=O)cc2)cc1 (stereo not shown) [Analog 140],,,IC50 (8392B cell line [1]): > 14 µM; IC50 (MV522 cell line [2]): > 14 µM
CC1=C(CSCCC(N)C(=O)O)C2=C(C)C3(CC3)[C@@](C)(O)C(=O)C2=C1 (stereo partly shown) [Analog 097],> 82,,
CC1=C(CN2C(=O)C=CC2=O)C2=C(C)C3(CC3)[C@@](C)(O)C(=O)C2=C1 [Analog 189],,,cytotoxicity (in words) (MV522 cell line [4]; see Table XV): cytotoxic with nM activity
CC1=C(CCCNS(C)(=O)=O)C2=C(C)C3(CC3)[C@@](C)(O)C(=O)C2=C1 [Analog 241],> 28,,
CC1=C2C(=CC(C)(C)[C@@H]2OC(=O)CCCC(=O)Oc2ccc3c(c2)CC[C@@H]2[C@@H]3CC[C@]3(C)C(=O)CC[C@@H]23)C(=O)[C@](C)(O)C12CC2 [Analog 107],> 50,> 50,
CC1=C2C(=O)C(C)(CO)C=C2C(=O)C(C)(O)C12CC2 (stereo not shown) [Analog 099],4 ± 0.4,8.4 ± 1.1,
CC1=C2C(=CC(C)(COC(=O)CCCC(=O)O)C2OC(=O)CCCC(=O)O)C(=O)C(C)(O)C12CC2 (stereo not shown) [Analog 117],,,IC50 (8392B cell line [1]): 0.01 ± 0.002 µM
CC1=C(CO)C2=C(C)C3(CC3)[C@@](C)(O)C(=O)C2=C1 [Analog 002],,,inhibition of the nontarget cell line with prolonged exposure (8392B cell line [1]; prolonged exposure period (e.g. 48 hours)): can eventually inhibit the nontarget cell line
CC1=C2C(=O)C(C)(OC(C)C)CC2C(O)C(=O)C12CC2 (stereo not shown) [Analog 183],> 120,> 120,IC50 (8392B cell line [1]): > 235 µM
CC1=C(CCCNS(N)(=O)=O)C2=CC3(CC3)C(C)(O)C(=O)C2=C1 (stereo not shown) [Analog 264],> 85,,IC50 (MV522 cell line [2]): 0.076 ± 0.017 µM
C=C1C[C@@H]2CC[C@@]34C[C@H]5O[C@H]6[C@@H](O3)[C@H]3O[C@H](CC[C@@H]3O[C@H]6[C@H]5O4)CC(=O)O[C@@H]3[C@@H](C)[C@@H]4O[C@@H]5C[C@]6(C[C@@H]7O[C@]8(C[C@H](C)[C@@H]9O[C@H]([C@@H](O)C[C@@H](O)CO)C[C@@H]9O8)C[C@H](C)[C@@H]7O6)O[C@@H]5C[C@@H]4O[C@H]3C[C@H]3O[C@@H](CC[C@@H]1O2)C[C@@H](C)C3=C [Halichondrin B],,,"Mean TGI cytostatic ([5]; NCI DTP 60 cell line mean): 0.199 µM; Mean LD50 cytotoxic [5]: >1,000 nM"
CC1=C(COC2OC(CO)C(O)C(O)C2O)C2=C(C)C3(CC3)C(C)(O)C(=O)C2=C1 (stereo not shown) [Analog 018],,8.8 ± 2.9,
CC1=C2C(=CC(C)(C)C2OC(=O)CCCC(=O)Oc2ccc3c(c2)CCC2C3CCC3(C)C(O)CCC23)C(=O)C(C)(O)C12CC2 (stereo not shown) [Analog 109],> 50,> 50,
"CC1=C(CO)C2=C(C)C3(CC3)[C@@](C)(O)C(=O)C2=C1 [Irofulven, 6-hydroxymethylacylfulvene]",,,clinical activity [6]: demonstrated clinical activity; safety profile [6]: acceptable safety profile; activity versus common resistance mechanisms (MDR phenotypes): independent of common resistance mechanisms
CC1=C(OC(=O)CCCCC(=O)c2ccccc2)C2=C(C)C3(CC3)[C@@](C)(O)C(=O)C2=C1 [Analog 158],> 200,> 175,
CON(CC1=C(C)C=C2C(=O)[C@](C)(O)C3(CC3)C(C)=C21)C(=O)C(N)Cc1c[nH]c2ccccc12 (stereo partly shown) [Analog 154],> 70,> 70,
CC1=C2C(=C[C@@](C)(CO[Si](C)(C)C(C)(C)C)[C@@H]2OC(=O)c2ccc(S(=O)(=O)F)cc2)C(=O)[C@](C)(O)C12CC2 [Analog 219],> 52,> 52,IC50 (8392B cell line [1]): > 52 µM
CC1=C(CCC(=O)OC2CCC3(C)C(CCC4C5CCC(=O)C5(C)CCC43)C2)C2=C(C)C3(CC3)[C@@](C)(O)C(=O)C2=C1 (stereo partly shown) [Analog 112],14.9 ± 0.1,,IC50 (8392B cell line [1]): 5.2 ± 0.3 µM
CC1=C(CSCC(N)C(=O)NC(CC(N)=O)C(=O)NCC(=O)NC(CCCNC(=N)N)C(=O)NC(CS)C(=O)O)C2=C(C)C3(CC3)C(C)(O)C(=O)C2=C1 (stereo not shown) [Analog 102] (H-C(X3)NGRC-OH; configuration not given here),,> 13,
